In patent publication US20240382497A1, “PROPHYLACTIC OR THERAPEUTIC AGENT FOR HYPOXIC INJURY, ISCHAEMIA-REPERFUSION INJURY AND INFLAMMATION, CELL PROTECTION AGENT FOR TRANSPLANTATION, AND BIO-PRESERVATION AGENT” (priority 2018, published 2024):

Key:
C57/BL6N male mice [1] = assay: Survival time in 4% oxygen after intraperitoneal NaHS or 2-methylthiophene; format: in vivo, mouse; conditions: 200 μl i.p. of 1% solution; all individuals; observation time of 30 min
Experimental: Thus, the survival time was measured at the remaining three concentrations. As a control, the survival time of the mice intraperitoneally injected with saline or 2-methylthiophene (1% solution) in 4% oxygen was measured.

TNF-α = assay: Blood TNF-α after LPS and 4E2MT, Trpa1 knockout and control mice; format: in vivo, mouse; conditions: 1 hr after simultaneous i.p. administration with LPS
Experimental: Lipopolysaccharide (LPS) (0.6 mg/kg) was intraperitoneally administered to male Balb/c mice (about 2-3 months old) to generate a sepsis model. Immediately after the LPS administration, 200 μl (about 80 mg/kg) of a solution prepared by diluting various heterocyclic compounds and isothiocyanate compounds 100 times with saline was intraperitoneally administered. Blood samples were collected 60 min after LPS and compound administration, EDTA plasma was prepared, and the blood level of inflammatory cytokine TNF-a was measured by the ELISA method.
Changes in the body surface temperature, survival time under a hypoxic environment, and TNF-α production in blood by LPS administration induced by intraperitoneally administration of thiazoline-related compound (4-ethyl-2-methyl-2-thiazoline; 4E2MT) measured by a method similar to those in Example 3, Example 10, or Example 18.

male C57/BL6N mouse = assay: Survival time in 4% oxygen after Trpa1 agonist i.p.; format: in vivo; conditions: wild-type mouse; i.p. Δ9-THC 10 mg/kg, AITC 40 mg/kg, APAP 300 mg/kg; 30 min before 4% oxygen; versus saline
Experimental: (§1) Saline or known Trpa1 agonists Δ9-tetrahydrocannabinol (Δ^9-THC; 10 mg/kg), allyl isothiocyanate (AITC; 40 mg/kg), or acetaminophen (APAP; 300 mg/kg) was intraperitoneally administered to male C57/BL6N mouse (about 3-month-old) and, 30 min later, the mouse was placed in a tight box with adjusted oxygen concentration of 4%, and the survival time of the mouse was measured for 30 min at maximum. As to APAP, the survival time in 4% oxygen environment was also measured using male Trpa1 knockout and littermate hetero mice (about 3-to 6-month-old).

[2] = system: Trpa1 knockout and littermate hetero mice; assay: Survival time in 4% oxygen after APAP i.p., Trpa1 knockout and hetero mice; format: in vivo, mouse; conditions: 300 mg/kg i.p., versus saline
Experimental: as §1

[3] = Yu et al., Cell Physiol Biochem 36: 1539-1551, 2015; cited from earlier work
C57/BL6N male mice [4] = assay: Survival time in 4% oxygen after intraperitoneal administration; format: in vivo, mouse; conditions: Example 12, about 80 mg/kg i.p., 30 min before 4% oxygen, Kaplan-Meier, versus saline
Experimental: Influence of intraperitoneal administration of various kinds of heterocyclic compounds on the survival time of mouse under hypoxic environment was analyzed. The odor molecule was administered by a method of intraperitoneally injecting 200 μl (about 80 mg/kg, i.p.) of a solution diluted 100 times with saline and, 30 min later, the mice were placed in a tight box with adjusted oxygen concentration of 4%, and the survival time of the mouse was measured for 30 min at maximum. As a control, the survival time of the mice intraperitoneally injected with saline (control) was measured.
By a method similar to that in Example 10, influence of intraperitoneal administration of various isothiocyanate compounds (about 80 mg/kg, i.p.) on the survival time of mouse under hypoxic environment was analyzed.
About 3-month-old C57/BL6N male mice were intraperitoneally injected with 200 μl (about 80 mg/kg, i.p.) of a thiomorpholine solution diluted 100 times with saline and, 30 min later, the mice were placed in a tight box with adjusted oxygen concentration of 4%, and the survival time of the mouse was measured. As a control, the survival time of the mice intraperitoneally injected with saline was measured.

[5] = system: wild-type and Trpa1 knockout mice; assay: Survival time in 4% oxygen, thiomorpholine i.p., wild-type and Trpa1 knockout mice; format: in vivo, mouse; conditions: about 80 mg/kg i.p.
Experimental: A heterocyclic compound (thiomorpholine) (200 μl, about 80 mg/kg) diluted 100 times with saline was intraperitoneally injected to male wild-type and Trpa1 knockout mice (about 3 to 6-month-old) and, 30 min later, the mice were placed in a tight box in which the oxygen concentration was adjusted to 4%, and the survival time of the mice was measured.

mice = assay: Oxygen consumption after intraperitoneal injection; format: in vivo, mouse; conditions: versus saline
Experimental: An influence of a thiazoline-related compound on the oxygen consumption was analyzed. The oxygen consumption was analyzed using an energy metabolism measurement device for small animals (ARCO-2000; ARCO SYSTEM). About 3-month-old C57/BL6N male mice were each placed in a measuring chamber and, after acclimation for about 2 hr, a thiazoline-related compound (2MT) was presented. The odors were presented by placing filter papers scented with 100 μl (104 mmol) of odor molecules in the measuring chamber. As a control, an experiment in which a filter paper dropped with saline was presented to the mice was also performed. The oxygen consumption was measured every one min. Mean oxygen consumption was calculated as the mean of 10 min before presenting odor and 20 min after presenting odor.
Changes in the oxygen consumption induced by intraperitoneal injection of heterocyclic compounds (2MT and Thiomorpholine (TMO) were measured by a method similar to that in Example 8.

In the case of `Cc1cccs1` [2-methylthiophene], the “survival time in 4% oxygen” value (C57/BL6N male mice [1]) is reported as at least 30 min.

With `CCC1CSC(C)=N1` (stereo not drawn) [4E2MT, 4-ethyl-2-methyl-2-thiazoline] the “amount of TNF-α in blood (decreasing effect)” value (TNF-α) was “this effect was suppressed”.

In the case of `CCCCCc1cc(O)c2c(c1)OC(C)(C)[C@@H]1CCC(C)=C[C@@H]21` [49-THC, Δ9-tetrahydrocannabinol], the “survival time in 4% oxygen” value (male C57/BL6N mouse) is reported as “extending the survival time”.

For `C=CCN=C=S` [AITC, allyl isothiocyanate], the “survival time in 4% oxygen” value (male C57/BL6N mouse) was “extending the survival time”.

With `CC(=O)Nc1ccc(O)cc1` [APAP, acetaminophen] the “survival time in 4% oxygen” value (male C57/BL6N mouse) was “extending the survival time”, the “survival time in 4% oxygen” value ([2]; Trpa1 knockout mice (Trpa1−/−)) was “such effect was not observed” and the “survival time in 4% oxygen” value ([2]; control mice (Trpa1+/−)) was “extending the survival time”.

For `[Na+].[SH-]` [NaHS], the “protective effects in ischemia-reperfusion injury” value [3] is listed as “protective effects in ischemia-reperfusion injury”.

In the case of `C1CSCCN1` [thiomorpholine], the “survival time in 4% oxygen (hypoxia resistance)” value (C57/BL6N male mice [4]) is reported as “produces hypoxia resistance”, the “survival time in 4% oxygen” value ([5]; Trpa1 knockout mice (Trpa1−/−), compared with wild-type mouse) is reported as “survival time significantly decreased” and the “survival time in 4% oxygen” value ([5]; wild-type mice (Trpa1+/+)) is reported as “significantly prolonging the survival time”. For the same compound, the oxygen consumption (mice) was “suppress the oxygen consumption”.
